Data as given in PubChem BioAssay AID1919015 (Molecular Pharmacology Branch, DTP, NCI, 2023).
“And” between values parts separate entries of the source, which are not always exact repeats. Identical values can stand only once.

Tested on: OVCAR-5 complex spheroids with HUVEC/MSC, viability, % test/control
Experiment: Anticancer human tumor OVCAR-5 cell line growth inhibition [AhR];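 note: spheroids exposed to compounds for 7 days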;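 for viability, T/C: 100% = DMSO vehicle control wells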
Conditions: for viability, T/C: stronger effect = lower value
Excerpt: Multicellular complex tumor spheroid response to aryl hydrocarbon receptor antagonists in combination with a variety of drugs and investigational agents in selected tumor cell lines
The current study was undertaken to assess response to aryl hydrocarbon receptor antagonists in combination with standard-of-care drugs and investigational agents in solid tumor complex spheroid models. Complex spheroids include a stromal component modeled by human endothelial cells (HUVEC) and fibroblasts modeled by human mesenchymal stem cells (MSCs). The concentration ranges selected for each drug and investigational agent were based upon clinically achievable concentrations if the clinical Cmax of the agent was known.
Compounds. The drugs and investigational agents: BAY 2416964 (NSC825713), GNF351 (NSC835774), CH-223191 (NSC835775), CPI-455 (NSC825282), aza-TdCyd (NSC777586), decitabine (NSC127716), belinostat (NSC758774), entinostat (NSC756642), pevonedistat (NSC761192), tazemetostat (NSC777109), talazoparib (NSC765396), olaparib (NSC753686), selinexor (NSC780203), nedisertib (M3814, NSC802822), bortezomib (NSC756655), venetoclax (NSC766270), doxorubicin (NSC123127), elimusertib (BAY189344, NSC800525), ceralasertib (AZD6738, NSC777638), TAK-243 (NSC785004), alisertib (NSC759677), etoposide (NSC141540), topotecan (NSC609699), eribulin (NSC707389), gemcitabine (NSC613327), carboplatin (NSC241240), cisplatin (NSC119875), and SN-38 (NSC673596) were obtained from the National Cancer Institute (NCI) Developmental Therapeutics Program Chemical Repository (32). The FDA-approved anticancer drug set is available from the Developmental Therapeutics Program at https://dtp.cancer.gov/organization/dscb/obtaining/available plates.htm. […] The stock solutions were prepared in dimethyl sulfoxide (DMSO, Sigma-Aldrich, St. Louis, MO, cat. D2650), except for the platinum compounds which were prepared in saline (Quality Biological, Gaithersburg, MD, cat. 114-055-101), at 800-fold the tested concentration and stored at -70 degrees C prior to their use. All drugs and investigational agents were tested over a range starting from a high concentration at or near the clinical Cmax and decreasing in half-log increments. If the clinical Cmax for an agent had not been determined, the highest concentration tested was 10 microM (Table 1).
Cell Culture. All cells were maintained in an incubator at 37 degrees C and 5% CO2 with 95% humidity. The PDC lines were cultured according to standard operating procedures established by the NCI PDMR (https://pdmr.cancer.gov). Briefly, all PDCs were thawed and cultured in Matrigel-coated flasks prepared with a working solution of 1X Ham's F-12 nutrient mix, without supplementation (Invitrogen, Waltham, MA, cat. 11765054), 100 U/mL penicillin-streptomycin (Invitrogen, cat. 15140122), and 2.5% Matrigel (Corning Inc., Corning, NY, cat. 354248) for the first three passages. All PDCs were cultured in complete DMEM/F-12 media containing advanced DMEM/F-12 (Invitrogen, cat. 12634028), 4.9% defined fetal bovine serum, heat inactivated (HyClone Laboratories Inc., Logan, UT, cat. SH30070.03HI), 389 ng/mL hydrocortisone (Sigma-Aldrich, cat. H4001), 9.7 ng/mL human EGF recombinant protein (Invitrogen, cat. PHG0313), 23.4 microg/mL adenine (Sigma-Aldrich, cat. A2786), 97.3 U/mL penicillin-streptomycin (Invitrogen, cat. 15140122), 1.9 mM L-glutamine (Invitrogen, cat. 25030081), and 9.7 microM Y-27632 dihydrochloride (Tocris Bioscience, Bristol, United Kingdom, cat. 1254). The PDCs were cultured in complete DMEM/F12 media without 10 microM Y-27632 dihydrochloride for at least two passages prior to the screen. The established cell lines NCI-H1341 and […] were cultured in DMEM/F-12, HEPES (Invitrogen, cat. 11330032), 5% defined fetal bovine serum (HyClone Laboratories Inc., cat. SH30070.03), ITS premix universal culture supplement [insulin (5 microg/mL), transferrin (5 microg/mL), and selenious acid (5 ng/mL)] […]

| Compound | IC50 (curve of compound) | viability, T/C (compound 0.0316 µM) | viability, T/C (compound 0.1 µM) | viability, T/C (compound 0.316 µM) | viability, T/C (compound 1 µM) | viability, T/C (compound 3.16 µM) | viability, T/C (compound 10 µM) | other results |
| --- | --- | --- | --- | --- | --- | --- | --- | --- |
| CC(C)CC(NC(=O)C(Cc1ccccc1)NC(=O)c1cnccn1)B(O)O (stereo unspecified) | 64.9 nM and 51 nM and 23.1 nM | – | – | – | – | – | – | viability, T/C (compound 0.000949 µM): 99.2% and 101% and 95.8%; viability, T/C (compound 0.003 µM): 99.8% and 102% and 100%; viability, T/C (compound 0.00949 µM): 100% and 96.3% and 85.5%; viability, T/C (compound 0.03 µM): 78.9% and 69.3% and 39%; viability, T/C (compound 0.0949 µM): 36% and 27.6% and 18%; viability, T/C (compound 0.3 µM): 24.7% and 18.1% and 11.4% |
| CC(C)c1c(-c2ccccc2)nc2c(C#N)c[nH]n2c1=O | > 10000 nM | 103% and 100% and 101% | 103% and 99.8% and 106% | 104% and 101% (2×) | 105% and 104% and 101% | 105% (2×) and 103% | 109% and 106% (2×) | – |
| CC(CO)NC(=O)c1cc(-c2ccc(Cl)cc2)nn(-c2cnn(C)c2)c1=O (stereo unspecified) | – | – | 107% [middle of 20 runs] | 108% [middle of 21 runs] | 114% [middle of 21 runs] | 103% [middle of 19 runs] | 98.4% [middle of 19 runs] | IC50 (compound alone, run of 08/08/2022): > 10000 nM |
| CC1(C)CCC(CN2CCN(c3ccc(C(=O)NS(=O)(=O)c4ccc(NCC5CCOCC5)c([N+](=O)[O-])c4)c(Oc4cnc5[nH]ccc5c4)c3)CC2)=C(c2ccc(Cl)cc2)C1 | > 10000 nM | 101% and 99.7% and 103% | 99.9% and 101% and 107% | 102% and 97.2% and 103% | 103% (2×) and 98.7% | 108% and 98.8% and 114% | 92% and 56.4% and 56% | – |
| CC1COCCN1c1cc(-c2ccnn2C)c2ccnc(-c3ccn[nH]3)c2n1 (stereo unspecified) | 290 nM and 229 nM and 240 nM | 102% and 95.4% and 103% | 84.8% and 79.3% and 79.7% | 47.3% and 38.3% and 41.1% | 30.7% and 25.6% and 26.6% | – | – | viability, T/C (compound 0.00316 µM): 105% and 103% and 102%; viability, T/C (compound 0.01 µM): 103% and 101% and 105% |
| CC1COCCN1c1cc(C2(S(C)(=N)=O)CC2)nc(-c2ccnc3[nH]ccc23)n1 (stereo unspecified) | 9160 nM and 6500 nM and 7400 nM | 101% and 102% and 99.5% | 101% (2×) and 99.1% | 104% and 102% and 96.8% | 100% and 97.1% and 98% | 89.4% and 71.8% and 75.2% | 46.7% and 37% and 41% | – |
| CCN(c1cc(-c2ccc(CN3CCOCC3)cc2)cc(C(=O)NCc2c(C)cc(C)[nH]c2=O)c1C)C1CCOCC1 | > 3000 nM | – | – | – | – | – | – | viability, T/C (compound 0.00949 µM): 104% (2×) and 101%; viability, T/C (compound 0.03 µM): 105% and 98.5% and 106%; viability, T/C (compound 0.0949 µM): 99.6% and 99.7% and 103%; viability, T/C (compound 0.3 µM): 101% and 100% and 105%; viability, T/C (compound 0.949 µM): 99.6% and 96.8% and 104%; viability, T/C (compound 3 µM): 101% and 96.4% and 104% |
| CC[C@@]1(O)C(=O)OCc2c1cc1n(c2=O)Cc2cc3c(CN(C)C)c(O)ccc3nc2-1 | > 100 nM and 23 nM and 75.9 nM | 57% and 37.1% and 61.3% | 50.6% and 40.1% and 46.5% | – | – | – | – | viability, T/C (compound 0.000316 µM): 102% and 99.2% and 104%; viability, T/C (compound 0.001 µM): 101% and 98.1% and 106%; viability, T/C (compound 0.00316 µM): 97.5% and 89.9% and 98.5%; viability, T/C (compound 0.01 µM): 88% and 79.8% and 89.2% |
| CCc1c2c(nc3ccc(O)cc13)-c1cc3c(c(=O)n1C2)COC(=O)[C@]3(O)CC | 13 nM and 7.38 nM and 7.51 nM | – | – | – | – | – | – | viability, T/C (compound 0.000949 µM): 90.5% and 88.5% and 79.2%; viability, T/C (compound 0.003 µM): 69% and 69.4% and 60.1%; viability, T/C (compound 0.00949 µM): 46% and 36.1% and 40.2%; viability, T/C (compound 0.03 µM): 45.3% and 36.5% and 41.5%; viability, T/C (compound 0.0949 µM): 28.9% and 21.7% and 21.8%; viability, T/C (compound 0.3 µM): 12.1% and 8% and 9.04% |
| COc1cc(C2c3cc4c(cc3C(OC3OC5COC(C)OC5C(O)C3O)C3COC(=O)C23)OCO4)cc(OC)c1O (stereo unspecified) | 3120 nM and 3790 nM and 2030 nM | 96.3% and 99.9% and 103% | 98.8% and 99.4% and 103% | 90.1% and 91.7% and 91.1% | 73.2% and 79.8% and 64.9% | 50% and 52.3% and 41.3% | 37.2% and 34.4% and 30.3% | – |
| COc1cc(Nc2ncc3c(n2)-c2ccc(Cl)cc2C(c2c(F)cccc2OC)=NC3)ccc1C(=O)O | 2920 nM and 1770 nM and 1250 nM | 88% and 84.9% and 84.8% | 79.3% and 80.2% and 76.8% | 61.4% and 57.7% and 55.4% | 58.3% and 55.7% and 50.5% | 51.2% and 49.3% and 47% | 42.7% and 41.6% and 39.5% | – |
